Results reported in publication PMC6277767, “Broad and Region-Specific Impacts of the Synthetic Cannabinoid CP 55,940 in Adolescent and Adult Female Mouse Brains” (Frontiers in Molecular Neuroscience, 2018).

Test system: CD1 female mouse brain lipidome
Test: Brain-region lipid levels (HPLC/MS/MS lipidomics) 2 h after single i.p. 3 mg/kg CP 55,940 vs vehicle
Type: in vivo
Protocol: The Bloomington Institutional Animal Care and Use Committee of Indiana University reviewed and approved the animal procedures. Female mice from the CD1 strain were utilized to match our study examining THC’s effects on the brain lipidome ([Leishman et al., 2018]). Mice were given a single i.p. injection of either 3 mg/kg CP or 1:1:18 cremophor:ethanol:saline vehicle (please refer to the section “3 mg/kg CP Is Relevant for Synthetic Cannabinoid Abuse and Has Stronger Effects on the Female Mouse Brain Lipidome During Adolescence” for a justification of dose and use of female mice). Three different age groups were given injections: PND 35 and PND 50 adolescents, and adult mice (PND 113). At least eight mice in each age group received CP and at least eight received vehicle. Matching the THC study time course ([Leishman et al., 2018]), mice were sacrificed via rapid decapitation 2 h after injection. Brains were immediately removed and flash-frozen in liquid nitrogen, and then stored at -80°C until dissections were performed. Brains were dissected on an ice-cold dissection plate into the following regions: STR, HIPP, CER, THAL, CTX, HYP, MID, and STEM. These abbreviations for these brain areas will be used exclusively when discussing the results generated by these specific dissections. Each dissected area was immediately placed in liquid nitrogen and then stored at -80°C until used for lipid extraction.
Tissue extracts were performed as previously described ([Bradshaw et al., 2006]; [Stuart et al., 2013]; [Raboune et al., 2014]; [Leishman et al., 2016a],[b], [2017], [2018]). First, samples were shock frozen in liquid nitrogen, weighed, and transferred to a centrifuge tube. The mass of the largest sample was multiplied by 50 to determine how many milliliters of HPLC-grade methanol (Fisher, Fair Lawn, NJ, United States) to add. Then, samples were spiked with 500 pmol deuterium-labeled NAGly (d8NAGly; Cayman Chemical, Ann Arbor, MI, United States). Samples were placed on ice in darkness for 2 h then individually homogenized and centrifuged at 19,000 × g for 20 min at 20°C. Supernatants were diluted with HPLC water (purified in house) to make a solution of 75% water, 25% supernatant. Lipids were partially purified on C18 solid phase extraction columns (Agilent, Palo Alto, CA, United States). A series of four elutions with 1.5 mL of 60%, 75%, 85%, and 100% methanol were collected ([Stuart et al., 2013]; [Leishman et al., 2016a],[b], [2018]).
As previously described ([Bradshaw et al., 2006]; [Tan et al., 2006]; [Smoum et al., 2010]; [Stuart et al., 2013]; [Tortoriello et al., 2013]; [Raboune et al., 2014]; [Leishman et al., 2016a],[b], [2017], [2018]), samples were analyzed using an Applied Biosystems API 3000 triple quadrupole mass spectrometer with electrospray ionization (Foster City, CA, United States). Using an Agilent XDB-C18 reversed phase analytical column and optimized mobile phase gradients, 20 μL from each elution were chromatographed. Two Shimadzu 10ADvp pumps (Columbia, MD, United States) provided the pressure for gradient elution. Mobile phase A: 20% methanol, 80% water (v/v) and 1 mM ammonium acetate (Sigma, St. Louis, MO, United States). Mobile phase B: 100% methanol, 1 mM ammonium acetate. Every method run began with 0% mobile phase B, reached 100% mobile phase B flowing at 0.2 mL/min, and gradually returned to 0% mobile phase B.
This screening library will be referred to as the lipidome when discussing data from this study. HPLC/MS/MS data were analyzed using Analyst software (Applied Biosystems) ([Bradshaw et al., 2006]; [Tan et al., 2006]; [Stuart et al., 2013]; [Tortoriello et al., 2013]; [Raboune et al., 2014]; [Leishman et al., 2016a],[b], [2017], [2018]). Chromatograms (Supplementary Figure 3) were generated by determining the retention time of analytes from the analytical column with a [M-1] or [M+1] parent peak and a fragmentation peak corresponding to the programmed values. […]

CCCCCCC(C)(C)c1ccc([C@@H]2C[C@H](O)CC[C@H]2CCCO)c(O)c1 [CP 55,940]
N-stearoyl leucine mean level (PND 35 striatum): 9.98E-13 moles per gram
N-stearoyl methionine mean level (PND 35 striatum): 1.31E-12 moles per gram
N-stearoyl phenylalanine mean level (PND 35 striatum): 1.28E-12 moles per gram
N-stearoyl serine mean level (PND 35 striatum): 1.89E-11 moles per gram
N-stearoyl tryptophan mean level (PND 35 striatum): 5.77E-13 moles per gram
Oleic acid mean level (PND 35 striatum): 1.18E-09 moles per gram
PGE2 mean level (PND 35 striatum): 3.74E-10 moles per gram
PGF2α mean level (PND 35 striatum): 2.8E-10 moles per gram
PhosphoLEA mean level (PND 35 striatum): 1.91E-11 moles per gram
total changes in lipid levels across the eight regions (PND 50): 141
changes in lipid levels that were decreases (PND 50, eight regions): 110
2-linoleoyl glycerol level vs vehicle (PND 50 CER): ↓↓ (1.50-1.99 times lower than vehicle)
2-oleoyl glycerol level vs vehicle (PND 50 CER): ↓ (1-1.49 times lower than vehicle)
2-palmitoyl glycerol level vs vehicle (PND 50 CER): ↓ (1-1.49 times lower than vehicle)
6-ketoPGF1α level vs vehicle (PND 50 CER): ↑ (1-1.49 times higher than vehicle)
Arachidonic acid level vs vehicle (PND 50 CER): ↓ (1-1.49 times lower than vehicle)
Linoleic acid level vs vehicle (PND 50 CER): ↓ (1-1.49 times lower than vehicle)
N-arachidonoyl GABA level vs vehicle (PND 50 CER): ↓ (1-1.49 times lower than vehicle)
N-arachidonoyl ethanolamine level vs vehicle (PND 50 CER): ↓ (1-1.49 times lower than vehicle)
N-arachidonoyl glycine level vs vehicle (PND 50 CER): ↓ (1-1.49 times lower than vehicle)
N-arachidonoyl phenylalanine level vs vehicle (PND 50 CER): ↓↓ (1.50-1.99 times lower than vehicle)
N-arachidonoyl serine level vs vehicle (PND 50 CER): ↓ (1-1.49 times lower than vehicle)
N-arachidonoyl taurine level vs vehicle (PND 50 CER): ↓ (1-1.49 times lower than vehicle)
N-arachidonoyl tyrosine level vs vehicle (PND 50 CER): ↓ (1-1.49 times lower than vehicle)
N-docosahexaenoyl phenylalanine level vs vehicle (PND 50 CER): ↓ (1-1.49 times lower than vehicle)
N-linoleoyl ethanolamine level vs vehicle (PND 50 CER): ↓ (1-1.49 times lower than vehicle)
N-oleoyl GABA level vs vehicle (PND 50 CER): ↓ (1-1.49 times lower than vehicle)
N-oleoyl ethanolamine level vs vehicle (PND 50 CER): ↓ (1-1.49 times lower than vehicle)
N-oleoyl phenylalanine level vs vehicle (PND 50 CER): ↑ (1-1.49 times higher than vehicle)
N-palmitoyl leucine level vs vehicle (PND 50 CER): ↑↑ (1.50-1.99 times higher than vehicle)
N-palmitoyl valine level vs vehicle (PND 50 CER): ↑ (1-1.49 times higher than vehicle)
Oleic Acid level vs vehicle (PND 50 CER): ↓ (1-1.49 times lower than vehicle)
PGE2 level vs vehicle (PND 50 CER): ↓ (1-1.49 times lower than vehicle)
PGF2α level vs vehicle (PND 50 CER): ↓ (1-1.49 times lower than vehicle)
2-linoleoyl glycerol level vs vehicle (PND 50 CTX): ↓ (1-1.49 times lower than vehicle)
2-oleoyl glycerol level vs vehicle (PND 50 CTX): ↓ (1-1.49 times lower than vehicle)
Arachidonic acid level vs vehicle (PND 50 CTX): ↓ (1-1.49 times lower than vehicle)
Linoleic acid level vs vehicle (PND 50 CTX): ↓↓ (1.50-1.99 times lower than vehicle)
N- stearoyl valine level vs vehicle (PND 50 CTX): ↑ (1-1.49 times higher than vehicle)
N-arachidonoyl GABA level vs vehicle (PND 50 CTX): ↓ (1-1.49 times lower than vehicle)
N-arachidonoyl alanine level vs vehicle (PND 50 CTX): ↓ (1-1.49 times lower than vehicle)
N-arachidonoyl ethanolamine level vs vehicle (PND 50 CTX): ↓ (1-1.49 times lower than vehicle)
N-arachidonoyl phenylalanine level vs vehicle (PND 50 CTX): ↓ (1-1.49 times lower than vehicle)
N-arachidonoyl taurine level vs vehicle (PND 50 CTX): ↓ (1-1.49 times lower than vehicle)
N-docosahexaenoyl ethanolamine level vs vehicle (PND 50 CTX): ↓ (1-1.49 times lower than vehicle)
N-linoleoyl ethanolamine level vs vehicle (PND 50 CTX): ↓ (1-1.49 times lower than vehicle)
N-oleoyl ethanolamine level vs vehicle (PND 50 CTX): ↓↓ (1.50-1.99 times lower than vehicle)
N-oleoyl serine level vs vehicle (PND 50 CTX): ↑ (1-1.49 times higher than vehicle)
N-palmitoyl leucine level vs vehicle (PND 50 CTX): ↑ (1-1.49 times higher than vehicle)
N-palmitoyl methionine level vs vehicle (PND 50 CTX): ↑ (1-1.49 times higher than vehicle)
N-palmitoyl phenylalanine level vs vehicle (PND 50 CTX): ↑ (1-1.49 times higher than vehicle)
N-palmitoyl tyrosine level vs vehicle (PND 50 CTX): ↑ (1-1.49 times higher than vehicle)
N-palmitoyl valine level vs vehicle (PND 50 CTX): ↑ (1-1.49 times higher than vehicle)
N-stearoyl phenylalanine level vs vehicle (PND 50 CTX): ↑ (1-1.49 times higher than vehicle)
PGE2 level vs vehicle (PND 50 CTX): ↓ (1-1.49 times lower than vehicle)
2-linoleoyl glycerol level vs vehicle (PND 50 HIPP): ↓ (1-1.49 times lower than vehicle)
6-ketoPGF1α level vs vehicle (PND 50 HIPP): ↑ (1-1.49 times higher than vehicle)
Linoleic acid level vs vehicle (PND 50 HIPP): ↓ (1-1.49 times lower than vehicle)
N-arachidonoyl alanine level vs vehicle (PND 50 HIPP): ↓ (1-1.49 times lower than vehicle)
N-arachidonoyl ethanolamine level vs vehicle (PND 50 HIPP): ↓↓ (1.50-1.99 times lower than vehicle)
N-arachidonoyl glycine level vs vehicle (PND 50 HIPP): ↓↓ (1.50-1.99 times lower than vehicle)
N-arachidonoyl serine level vs vehicle (PND 50 HIPP): ↓↓ (1.50-1.99 times lower than vehicle)
N-arachidonoyl taurine level vs vehicle (PND 50 HIPP): ↓ (1-1.49 times lower than vehicle)
N-arachidonoyl tyrosine level vs vehicle (PND 50 HIPP): ↑ (1-1.49 times higher than vehicle)
N-docosahexaenoyl ethanolamine level vs vehicle (PND 50 HIPP): ↓ (1-1.49 times lower than vehicle)
N-linoleoyl ethanolamine level vs vehicle (PND 50 HIPP): ↓↓ (1.50-1.99 times lower than vehicle)
N-linoleoyl serine level vs vehicle (PND 50 HIPP): ↑ (1-1.49 times higher than vehicle)
N-oleoyl leucine level vs vehicle (PND 50 HIPP): ↓ (1-1.49 times lower than vehicle)
N-oleoyl serine level vs vehicle (PND 50 HIPP): ↑ (1-1.49 times higher than vehicle)
PGE2 level vs vehicle (PND 50 HIPP): ↑ (1-1.49 times higher than vehicle)
PGF2α level vs vehicle (PND 50 HIPP): ↑ (1-1.49 times higher than vehicle)
2-arachidonoyl glycerol level vs vehicle (PND 50 HYP): ↓ (1-1.49 times lower than vehicle)
N-arachidonoyl phenylalanine level vs vehicle (PND 50 HYP): ↓ (1-1.49 times lower than vehicle)
N-palmitoyl leucine level vs vehicle (PND 50 HYP): ↑ (1-1.49 times higher than vehicle)
PGF2α level vs vehicle (PND 50 HYP): ↑ (1-1.49 times higher than vehicle)
number of lipids changed (PND 50 HYP, 49 detected): four
2-linoleoyl glycerol level vs vehicle (PND 50 MID): ↓ (1-1.49 times lower than vehicle)
2-oleoyl glycerol level vs vehicle (PND 50 MID): ↓ (1-1.49 times lower than vehicle)
6-ketoPGF1α level vs vehicle (PND 50 MID): ↓ (1-1.49 times lower than vehicle)
Linoleic acid level vs vehicle (PND 50 MID): ↓ (1-1.49 times lower than vehicle)
N-arachidonoyl GABA level vs vehicle (PND 50 MID): ↓ (1-1.49 times lower than vehicle)
N-arachidonoyl alanine level vs vehicle (PND 50 MID): ↓↓ (1.50-1.99 times lower than vehicle)
N-arachidonoyl ethanolamine level vs vehicle (PND 50 MID): ↓ (1-1.49 times lower than vehicle)
N-arachidonoyl glycine level vs vehicle (PND 50 MID): ↓↓ (1.50-1.99 times lower than vehicle)
N-arachidonoyl methionine level vs vehicle (PND 50 MID): ↓↓ (1.50-1.99 times lower than vehicle)
N-arachidonoyl phenylalanine level vs vehicle (PND 50 MID): ↓ (1-1.49 times lower than vehicle)
N-arachidonoyl tyrosine level vs vehicle (PND 50 MID): ↓ (1-1.49 times lower than vehicle)
N-docosahexaenoyl GABA level vs vehicle (PND 50 MID): ↓ (1-1.49 times lower than vehicle)
N-docosahexaenoyl ethanolamine level vs vehicle (PND 50 MID): ↓ (1-1.49 times lower than vehicle)
N-docosahexaenoyl leucine level vs vehicle (PND 50 MID): ↑ (1-1.49 times higher than vehicle)
N-linoleoyl ethanolamine level vs vehicle (PND 50 MID): ↓ (1-1.49 times lower than vehicle)
N-oleoyl ethanolamine level vs vehicle (PND 50 MID): ↓ (1-1.49 times lower than vehicle)
N-oleoyl methionine level vs vehicle (PND 50 MID): ↓↓ (1.50-1.99 times lower than vehicle)
N-palmitoyl alanine level vs vehicle (PND 50 MID): ↓ (1-1.49 times lower than vehicle)
N-palmitoyl ethanolamine level vs vehicle (PND 50 MID): ↓ (1-1.49 times lower than vehicle)
N-palmitoyl leucine level vs vehicle (PND 50 MID): ↑ (1-1.49 times higher than vehicle)
N-palmitoyl serine level vs vehicle (PND 50 MID): ↓ (1-1.49 times lower than vehicle)
N-stearoyl methionine level vs vehicle (PND 50 MID): ↓ (1-1.49 times lower than vehicle)
N-stearoyl phenylalanine level vs vehicle (PND 50 MID): ↓ (1-1.49 times lower than vehicle)
Oleic Acid level vs vehicle (PND 50 MID): ↓ (1-1.49 times lower than vehicle)
PGE2 level vs vehicle (PND 50 MID): ↓ (1-1.49 times lower than vehicle)
PGF2α level vs vehicle (PND 50 MID): ↓ (1-1.49 times lower than vehicle)
